Source: US6342483B1, “Method for detection and treatment of breast cancer” (Vanderbilt University, priority 1994, dated 2002)

Key:
[1] = tested on: MCF-7 cells; assay: Nuclear labelling with tritiated thymidine in synchronized MCF-7 cells; format: cell-based, human; details: tamoxifen 48 hours, then 1 uM estradiol
Source text: (§1) In order to critically evaluate the function of BRCA1 gene inhibition on growth stimulation and cell cycle progression it was necessary to identify a gene whose expression is cell cycle regulated in human mammary cells. […] Because ribonucleotide reductase constitutes the rate limiting step in DNA synthesis, we reasoned that it might be cell cycle regulated in a synchronous growth model such as MCF-7 cells which can be growth arrested by tamoxifen and then restimulated by estrogen (Aitken et al. 1985, Arteaga et al. 1989). MCF-7 cells were growth arrested by tamoxifen for 48 hours and then stimulated at time zero (0) with 1 uM estradiol (+E) or control vehicle (−E).

[2] = tested on: ribonucleotide reductase M2 gene; assay: Northern blot and nuclear run on of ribonucleotide reductase M2 in synchronized MCF-7 cells; format: cell-based, human; details: tamoxifen 48 hours, then 1 uM estradiol
Source text: as §1
FIG. 13A is a Northern blot of mRNA from synchronized MCF-7 cells. At the indicated time in hours, total cellular RNA was isolated and Northern blotting performed using the 1.6 Kb Eco RI fragment from our cloned human ribonucleotide reductase cDNA described above. Two mRNA species of 1.6 and 3.4 Kb are observed in these studies.
Con represents cells which were grown for 48 hours but not treated with tamoxifen.

[3] = tested on: human primary mammary epithelial cells; assay: Growth rate of primary mammary epithelial cells incubated with antisense or sense oligonucleotide; format: cell-based
Source text: (§2) Unmodified 18 base deoxyribonucleotide complementary to the BRCA1 translation initiation site were synthesized and added to cultures of primary mammary epithelial cells (Stampfer et al. 1980) or MCF-7 breast cancer cells (Soule and McGrath, 1980). FIG. 12 is graph showing growth rate of human primary mammary epithelial cells (A), MCF-7 cells (B), retinal pigmented epithelial cells (C), cultured as described below. Points and bars represent the mean and the 95% confidence interval of triplicate counts of cells incubated with a single bolus of the indicated concentration of antisense or control sense deoxyribonucleotide.
Antisense oligonucleotide studies. Unmodified deoxyribonucleotide were analyzed by gel electrophoresis and UV shadowing and shown to be homogenous and of appropriate size. These oligonucleotide were purified by multiple lyophilization and solubilized in buffered media as described (Holt et al. 1988). Sequence of the unmodified antiBRCA1 oligonucleotide 5′AAG AGC AGA TAA ATC CAT 3′(SEQ ID NO: 52) and the complementary sense oligonucleotide 5′ATG GAT TTA TCT GCT CTT 3′ (SEQ ID NO:53) correspond to the presumed translation initiation site at bases […] of the GenBank sequence. The antisense oligonucleotide sequence was searched against GenBank and no significant homologies were identified to genes except BRCA1. Oligonucleotides were used according to our published methods (Holt et al. 1988). Primary mammary epithelial cells were cultured in serum-free medium supplemented with epidermal growth factor, insulin, hydrocortisone, ethanolamine, phosphorylethanolamine, and bovine pituitary extract. MCF-7 cells were cultured in Minimum Essential Medium Eagle (Modified) with Earle's salts and 2g/L sodium bicarbonate m supplemented with 2 mM L-glutamine, GMS-A (Gibco Cat. #680-1300AD), nonessential amino acids, and 2.5% fetal calf serum. Retinal pigmented perithelial cells were cultured in DMEM and 10% calf serum.

[4] = tested on: MCF-7 breast cancer cells; assay: Growth rate of MCF-7 cells incubated with antisense or sense oligonucleotide; format: cell-based, human; details: 40 uM oligonucleotide, single bolus, FIG. 12B
Source text: as §2
(§3) Antisense oligonucleotide studies. Unmodified deoxyribonucleotide were analyzed by gel electrophoresis and UV shadowing and shown to be homogenous and of appropriate size. These oligonucleotide were purified by multiple lyophilization and solubilized in buffered media as described (Holt et al. 1988). Sequence of the unmodified antiBRCA1 oligonucleotide 5′AAG AGC AGA TAA ATC CAT 3′(SEQ ID NO: 52) and the complementary sense oligonucleotide 5′ATG GAT TTA TCT GCT CTT 3′ (SEQ ID NO:53) correspond to the presumed translation initiation site at bases 12-137 of the GenBank sequence. The antisense oligonucleotide sequence was searched against GenBank and no significant homologies were identified to genes except BRCA1. […]

[5] = tested on: human retinal pigmented epithelial cells; assay: Growth rate of retinal pigmented epithelial cells incubated with antisense or sense oligonucleotide; format: cell-based; details: 40 uM oligonucleotide, single bolus; FIG. 12C
Source text: as §2, §3

[6] = tested on: BRCA1 mRNA; assay: Nuclease protection assay of BRCA1 mRNA after antisense treatment; format: cell-based, human; details: compared with cells treated with sense control oligonucleotide; 40 uM, 4 days; lanes 9 and 10 FIG. 14 (primary mammary epithelial cells)
Description: (§4) Antisense inhibition is a useful strategy for studying gene expression which is dependent on expression of the antisense target gene (Robinson-Benion and Holt, in press, 1995), e.g. genes whose expression is directly or indirectly dependent on BRCA1 levels. […] A nuclease protection assay of mRNA derived from primary mammary epithelial cells (lanes 1-4, 9-10) or MCF-7 cells Oanes 5-8, 11-12) cultured for 4 days with antisense or control oligonucleotide was performed under the following conditions: no oligonucleotide (lanes 1 and 5); 40 uM antiBRCA1 (lanes 2,6,10,12); 4 uM antiBRCA1 (lanes 3 and 7); 40 uM sense control (lanes 4,8,9,11). Probes for BRCA1 and GAPD are as described for FIG. 10, and the ribonucleotide reductase M2 probe (RR) detects the 200 bp probe is described above.
(§5) Nuclease Protection Assays. PCR primers were derived from BRCA1 sequence in GenBank (Accession number U14680); forward 5′CAA TTG GGC AGA TGT GT 3′ (SEQ ID NO:50) and reverse 5′CTGGGGGATCTGGGGTATCA 3′ (SEQ ID NO:51) which amplify a 113 bp region from exon 24, corresponding to bases 5587 to 5699 of the human BRCA1. This region was selected because this exon has not been reported to be differentially spliced unlike more 5′ exons. […]
(§6) Antisense oligonucleotide studies. Unmodified deoxyribonucleotide were analyzed by gel electrophoresis and UV shadowing and shown to be homogenous and of appropriate size. […]

[7] = tested on: ribonucleotide reductase M2 mRNA; assay: Nuclease protection assay of ribonucleotide reductase M2 mRNA after antisense treatment, primary mammary epithelial cells; format: cell-based, human; details: 40 uM, cultured 4 days
Description: as §4, §5, §6

[8] = tested on: ribonucleotide reductase M2 mRNA; assay: Nuclease protection assay of ribonucleotide reductase M2 mRNA after antisense treatment, MCF-7 cells; format: cell-based, human; details: 40 uM, cultured 4 days
Description: as §4, §5, §6

C[C@]12CC[C@@H]3c4ccc(O)cc4CC[C@H]3[C@@H]1CC[C@@H]2O [estrogen, estradiol]
DNA synthesis [1]: induction of synthesis
transcription of the ribonucleotide reductase M2 gene [2]: induced

CC/C(=C(\c1ccccc1)c1ccc(OCCN(C)C)cc1)c1ccccc1 [tamoxifen]
DNA synthesis [1]: Inhibition of DNA synthesis
transcription of the ribonucleotide reductase M2 gene [2]: inhibited

anti-BRCA1 oligonucleotide: Unmodified 18 base deoxyribonucleotide complementary to the BRCA1 translation initiation site, 5′AAG AGC AGA TAA ATC CAT 3′ (SEQ ID NO: 52) (antisense AAGAGCAGATAAATCCAT; unmodified DNA)
growth of normal mammary cells ([3]; 40 uM oligonucleotide, single bolus, FIG. 12A): accelerated growth
morphologic appearance of the cell lines ([3]; addition of antisense oligonucleotide): not noticeably changed
proliferative rate of the cell lines ([3]; addition of antisense oligonucleotide, dose not stated): faster
cell growth rate ([3]; intermediate dose, cell line not given): less pronounced but significant increase
growth of malignant mammary cells [4]: accelerated growth
growth of human retinal pigmented epithelial cells [5]: did not affect the growth
inhibition of BRCA1 mRNA levels [6]: 70-90%
ribonucleotide reductase mRNA levels [7]: highest
ribonucleotide reductase mRNA levels [8]: highest

sense oligomer: Complementary sense control oligonucleotide with the same GC content, 5′ATG GAT TTA TCT GCT CTT 3′ (SEQ ID NO:53) (sense ATGGATTTATCTGCTCTT; further chemistry not given here) [reference compound]
growth activation by anti-BRCA1 oligomer ([3]; 10 fold excess of sense oligomer added to the anti-BRCA1 oligomer, cell line not specified): reversed the growth activation
proliferation rate ([3]; control oligomer with the same GC content, cell line not specified): did not increase the proliferation rate
